Results published in PubChem BioAssay (NCI).
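Tested at 5 concentrations; 48 h exposure; 96-well plates; endpoints linearly interpolated, else capped at highest concentration. TGI: concentration producing complete growth inhibition.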

What was measured:
Assay in all cases: inhibition of tumour cell growth, NCI panel, 48 h
NCI-H522 lung = system: NCI-H522 lung
OVCAR-4 ovarian = system: OVCAR-4 ovarian
HOP-92 NSCLC = system: HOP-92 NSCLC
SW-620 colon = system: SW-620 colon
SNB-75 CNS = system: SNB-75 CNS
HS 578T breast = system: HS 578T breast
HOP-62 NSCLC = system: HOP-62 NSCLC
SN12C renal = system: SN12C renal
TK-10 renal = system: TK-10 renal
ACHN renal = system: ACHN renal

| Compound | TGI (NCI-H522 lung) | TGI (OVCAR-4 ovarian) | TGI (HOP-92 NSCLC) | TGI (SW-620 colon) | TGI (SNB-75 CNS) | TGI (HS 578T breast) | TGI (HOP-62 NSCLC) | TGI (SN12C renal) | TGI (TK-10 renal) | TGI (ACHN renal) |
| --- | --- | --- | --- | --- | --- | --- | --- | --- | --- | --- |
| O=C1C(c2c(O)[nH]c3ccc(I)cc23)=Nc2ccccc21 | > 58.9 µM | > 44.7 µM | 12.4 µM | > 56.7 µM | 17 µM | > 100 µM | 30 µM | > 74.1 µM | 17.9 µM | 11.8 µM |
| CCOC(=O)[C@H](CO)Nc1c(O)c2c(c(O)c1Cl)C(=O)C=CC2=O | > 10 µM | > 10 µM | > 10 µM | > 10 µM | > 10 µM | > 10 µM | > 10 µM | > 10 µM | > 10 µM | > 10 µM |
| CCOC(=O)C(NC(=O)c1ccccc1)(Nc1ccc(S(=O)(=O)Nc2ccc(OC)nn2)cc1)C(F)(F)F (stereo not given) | > 100 µM | > 100 µM | > 100 µM | > 100 µM | > 100 µM | > 100 µM | > 100 µM | > 100 µM | > 100 µM | > 100 µM |
| O=C1CCc2ccccc2O1 | > 100 µM | > 100 µM | > 100 µM | > 100 µM | > 100 µM | > 100 µM | > 100 µM | > 100 µM | > 100 µM | > 100 µM |
| CC1(C)OC2[C@@H](CO[C@@]3([C@H]4OC(C)(C)O[C@@H]4CO)OC(C)(C)O[C@@H]23)O1 (stereo not given in full) | > 100 µM | > 100 µM | > 100 µM | > 100 µM | > 100 µM | > 100 µM | > 100 µM | > 100 µM | > 100 µM | > 100 µM |
| COc1cc(C2c3cc4c(cc3OC(NNc3ccccc3)C2C)OCO4)cc(OC)c1O (stereo not given) | 12.1 µM | 38.2 µM | 24.5 µM | 21 µM | 7.56 µM | 12 µM | 33.1 µM | 4.63 µM | 23.6 µM | 10.4 µM |
| N#Cc1c(O)c(C=O)c(=O)n2c1[nH]c1ccccc12 | > 100 µM | > 100 µM | > 100 µM | > 100 µM | > 100 µM | > 100 µM | > 100 µM | > 100 µM | > 100 µM | > 100 µM |
| Cc1sc2nc3n(c(=O)c2c1C)N=C(c1ccccc1)CS3 | > 100 µM | > 100 µM | > 100 µM | > 100 µM | > 100 µM | > 100 µM | > 100 µM | > 100 µM | > 100 µM | > 100 µM |
| COc1ccc2nc3c([N+](=O)[O-])ccc(NCCCN(C)C)c3c(N)c2c1 | 1.34 µM | 3.06 µM | 3.73 µM | 1.71 µM | 3.47 µM | 4.79 µM | 3.89 µM | 2.99 µM | 3.46 µM | 2.59 µM |
| COc1cc2nc3n(c(=O)c2cc1OC)CCCCC3 | > 100 µM | > 100 µM | > 100 µM | > 100 µM | > 100 µM | > 100 µM | > 100 µM | > 100 µM | > 100 µM | > 100 µM |
| CC(=O)OC12OC(C)(C3C(=O)N(c4ccccc4)C(=O)C31)N(c1ccccc1)C2=O (stereo not given) | > 100 µM | > 100 µM | > 100 µM | > 100 µM | > 100 µM | > 100 µM | > 100 µM | > 100 µM | > 100 µM | > 100 µM |
| O=C1C(=O)N(C23CC4CC(CC(C4)C2)C3)C(=S)N1c1ccccc1 | > 100 µM | > 100 µM | > 100 µM | > 100 µM | > 100 µM | > 100 µM | > 100 µM | > 100 µM | > 100 µM | > 100 µM |
